One assay deals with BxPC-3 cell line. Nature of the assay: Growth inhibition (GI50) assay, SRB, BxPC-3. The format is cell-based. The settings on record: Homo sapiens, 120 h, BxPC-3 (KRas wild-type, TP53 mutant, SMAD4 homozygous deletion), 5 days. From the text:
(§1) BxPC-3 and PANC-1 cell lines were obtained from American Type Culture Collection (ATCC, Manassas, Va.) and maintained according to the supplier's instructions. Short tandem repeat (STR) profiling was used to verify authenticity of the cell lines. Sixteen STR loci were simultaneously amplified in a multiplex PCR reaction (The Hospital for Sick Children, Toronto, Canada), and the ATCC database was used for comparison, where possible. Cell lines were routinely tested for mycoplasma and used at low passage numbers (<15).
(§2) Cells were seeded at 3000 per 80 μL, into 96-well plates according to cell growth rate 24 hours before compound overlay and cultured at 37° C. and 5% CO2. Compounds were prepared as 10 mM stocks in 100% DMSO. […] After 5 days, cell growth in each well was assessed by the sulforhodamine B (SRB) assay measuring total protein content. […] The SRB was solubilized with 100 μL of 10 mM Tris pH 10.5 per well, and absorbance was read at 570 nm using a SpectraPlus microplate reader (Molecular Devices Corporation). SRB absorbance values were adjusted by subtracting the average of the baseline readings from untreated cells assessed one day after cell seeding. The percentage (%) of relative inhibition of cell growth was calculated by comparing to DMSO-treated cells. GI50s were calculated using GraphPad PRISM software (GraphPad Software Inc., San Diego, Calif.).

For another assay, the system named is OCIP110 tumors. The assay is described as follows: OCIP110 orthotopic xenograft, Compound II alone or with Cisplatin. The assay is classed as in vivo, SCID mice. As to conditions: Compound II 10 mg/kg 2-on/5-off schedule, 21 days. Here is the method:
OCIP110 tumors were implanted orthotopically onto the pancreas of 4-5 week old SCID mice. Tumor volume was evaluated by palpation and animals were randomized into treatment groups. Animals were treated with either Compound II on a 2-on/5-off schedule with 10 mg/kg, a weekly dose of 4 mg/kg Cisplatin or the combination treatment for 21 days. Tumor weight was evaluated when tumors were excised at the end of the treatment.

In another assay the test system is PANC-1 cell line. The assay is described as follows: Growth inhibition (GI50) assay, SRB, PANC-1. As to conditions: Homo sapiens, 120 h, PANC-1 (KRas mutant, TP53 mutant, CDKN2A homozygous deletion, SMAD4 wild-type), 5 days. The format is cell-based.
Excerpt: as §1, §2

Assay [1] deals with OCIP51 xenograft tumor initiating cells. The assay is described as follows: Limiting dilution assay for tumor initiating cells (TIC). The format is in vivo, NOD/SCID mice. As to conditions: 52 mg/kg, tumors harvested 12 h after treatment, preliminary results. Here is the method: FIG. 2(C) is a schematic overview of the limiting dilution assay. Briefly, xenograft tumors were grown to a diameter of approximately 1 cm and treated with 52 mg/kg Compound II and tumors harvested 12 h after treatment. Excised tumors were mechanically minced and a single cell suspension prepared using a DNAse, Collagenase and Protease cocktail. A sample of the single cell suspension was stained for mouse CD31-FITC and H2K-FITC to establish the mouse cell content. Cells were counted using a haemocytometer and the human content was calculated. 3-6 dilutions of human cells per sample were injected into the flank of NOD/SCID mice. 3 mice were injected into both flanks per dilution. Tumor take rate was observed over the course of 6 month. Tumor initiating frequency was calculated from using the L-Calc software. […] The remaining 3 xenograft models have been injected for the dilutions.

In assay [2] the test system is patient-derived pancreatic xenograft models. Nature of the assay: Orthotopic patient-derived pancreatic xenograft models, mono-therapy. The format is in vivo, NOD/SCID mice. The text has this:
6 orthotopically implanted patient-derived pancreatic xenograft models with varying growth rates and levels of tumor hypoxia were used in order to investigate the efficiency of the Compound II as a mono-therapy or in combination with Gemcitabine.
The patient-derived pancreatic xenograft models were established by attaching a piece of the patient tumor on the pancreas of 4-5 week old Non-obese diabetic (NOD)/Severe combined immunodeficiency (SCID) mice. The xenograft models closely resemble the morphology of the patient specimen and represent the range of tumor morphologies described in pancreatic cancer patients.
Tumor volume was evaluated by palpation and animals were randomized into treatment groups. Animals were treated with Compound II using a daily dose of 7.5 mg/kg by oral gavage for 21 days for experiments evaluating activity as a mono-therapy, or with 13.5 mg/kg according to a 2-day-on-5-days-off schedule in combination bi-weekly 100 mg/kg Gemcitabine for 21 days.
Tumor weight after completion of the treatment and overall survival were evaluated. Immunofluorescence (IF) staining of xenograft sections was used to evaluate tumor hypoxia and proliferation. The impact of Compound II treatment on survival was examined in 6 animals per group. Mice were followed until the animals either died or had to be euthanized due to oversized tumors.

Turning to `COc1ccc2c(c1)[C@]1(C[C@H]1c1ccc3c(/C=C/c4ccc(CN5CCOCC5)cc4)n[nH]c3c1)C(=O)N2C` [Compound II], the GI50 (as a rule, the concentration giving 50% growth inhibition) with BxPC-3 cell line is 0.015 µM; with PANC-1 cell line it was 0.025 µM. For the same molecule, the “Tumor weight at the end of the treatment” value with OCIP110 tumors is listed as “reduced tumor weight”. The “Number of tumor initiating cells (TICs)” value in assay [1] is recorded as “reduced the number of TICs in OCIP51”. For the same molecule, the “Tumor weight after completion of the treatment” value in assay [2] (7.5 mg/kg daily by oral gavage for 21 days, mono-therapy, 6 xenograft models) is recorded as “significantly reduced tumor weight in 4 of the 6 tested patient-derived pancreatic xenograft models”. Besides, in assay [2] (OCIP51 (highly hypoxic, fast growing) model, 7.5 mg/kg daily oral, 21 days, vehicle 54 days), the medium survival is given as 103 days. Moreover, the overall survival entry in assay [2] (mono-therapy for 21 days, responsive models) is given as “increase in overall survival in a number of responsive models”. The “response to treatment versus tumor hypoxia” value in assay [2] (mono-therapy, highly hypoxic versus medium or low hypoxic models, preliminary results) is reported as “strongest response to Compound II as a mono-therapy was observed in highly hypoxic models”.

The record behind these values is patent US9642856B2, “Treatment for pancreatic cancer” (University Health Network, priority 2013, dated 2017).
